Ki and IC50 data for 33 compounds are collected here from patent US10988477B2 (Merck Patent GmbH, priority 2018, dated 2021).

Each structure is given as a SMILES string. Bounds are passed on as bounds.

Chain of GCN2 kinase (Q9P2K8 whole entry): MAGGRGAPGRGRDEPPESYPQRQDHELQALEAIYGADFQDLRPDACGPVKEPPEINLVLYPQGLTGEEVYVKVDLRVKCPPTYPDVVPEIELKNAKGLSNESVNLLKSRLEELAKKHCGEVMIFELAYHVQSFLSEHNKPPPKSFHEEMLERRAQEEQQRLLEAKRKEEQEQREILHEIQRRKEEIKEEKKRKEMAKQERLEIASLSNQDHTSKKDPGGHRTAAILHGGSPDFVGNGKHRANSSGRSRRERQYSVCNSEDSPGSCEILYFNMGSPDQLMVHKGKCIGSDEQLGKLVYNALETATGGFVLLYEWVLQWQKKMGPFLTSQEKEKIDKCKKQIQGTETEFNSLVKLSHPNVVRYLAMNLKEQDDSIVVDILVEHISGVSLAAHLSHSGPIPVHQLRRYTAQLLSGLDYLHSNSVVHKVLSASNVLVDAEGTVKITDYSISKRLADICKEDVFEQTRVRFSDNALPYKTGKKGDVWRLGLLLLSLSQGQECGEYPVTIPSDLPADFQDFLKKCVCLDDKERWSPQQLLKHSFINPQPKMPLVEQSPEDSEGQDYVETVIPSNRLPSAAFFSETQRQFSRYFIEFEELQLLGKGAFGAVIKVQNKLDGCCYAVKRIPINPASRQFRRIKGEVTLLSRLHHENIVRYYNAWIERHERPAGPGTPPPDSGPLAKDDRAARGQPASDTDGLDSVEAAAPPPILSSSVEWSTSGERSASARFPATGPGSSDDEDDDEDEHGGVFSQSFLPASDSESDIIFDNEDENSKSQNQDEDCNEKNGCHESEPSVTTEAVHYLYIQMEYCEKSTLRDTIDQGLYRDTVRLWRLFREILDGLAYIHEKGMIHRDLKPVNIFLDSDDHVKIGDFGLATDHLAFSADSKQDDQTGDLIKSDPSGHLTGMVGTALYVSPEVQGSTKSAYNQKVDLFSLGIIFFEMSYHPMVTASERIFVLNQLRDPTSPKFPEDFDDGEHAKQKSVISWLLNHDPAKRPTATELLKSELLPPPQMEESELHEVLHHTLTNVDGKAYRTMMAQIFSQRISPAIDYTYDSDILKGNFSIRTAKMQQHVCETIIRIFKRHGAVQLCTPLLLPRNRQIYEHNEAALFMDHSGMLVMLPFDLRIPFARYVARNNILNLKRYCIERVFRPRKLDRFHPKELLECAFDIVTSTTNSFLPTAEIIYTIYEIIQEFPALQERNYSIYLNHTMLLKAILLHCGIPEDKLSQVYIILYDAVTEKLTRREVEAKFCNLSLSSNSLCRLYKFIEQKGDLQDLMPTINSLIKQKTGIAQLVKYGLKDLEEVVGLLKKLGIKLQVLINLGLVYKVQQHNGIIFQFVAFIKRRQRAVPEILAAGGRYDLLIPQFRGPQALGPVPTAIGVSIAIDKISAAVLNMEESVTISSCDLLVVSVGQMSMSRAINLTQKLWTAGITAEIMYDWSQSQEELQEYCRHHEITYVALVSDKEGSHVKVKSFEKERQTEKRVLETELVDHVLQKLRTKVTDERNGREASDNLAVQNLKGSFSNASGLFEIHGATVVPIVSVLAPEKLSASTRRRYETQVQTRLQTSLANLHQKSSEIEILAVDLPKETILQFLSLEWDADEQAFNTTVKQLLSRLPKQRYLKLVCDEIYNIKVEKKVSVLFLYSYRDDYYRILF

For the first assay, the target named is GCN2 kinase (Homo sapiens, UniProt Q9P2K8). The assay is described as follows: GCN2 enzyme inhibition assay (Transcreener ADP2 fluorescence polarization). Format: biochemical. The conditions noted are these: Enzyme activity for compounds of Formula IV; Ki(app), 280 μM ATP, 25° C. A digest of the protocol:
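Inhibition of 4 nM GCN2 was measured with compound up to 8 μM final, ATP 280 μM and (RS)7 peptide 200 μM over a 1 h, 25 °C reaction. ADP FP readout; IC50 and Ki(app) calculated from percent inhibition.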
For orientation: Polarisation of emitted light reports the rotation of a fluorescent probe.
For `FC(F)c1cn2c(-c3cccc(-c4cccc5[nH]ccc45)n3)cnc2cn1` [IV-233, 3-(6-(1H-Indol-4-yl)pyridin-2-yl)-6-(difluoromethyl)imidazo[1,2-a]pyrazine], the Ki fell in the range of 10 to 100 nM.

`O=C(N[C@H]1CCCN(c2ccnc(-c3cnc4cnc(C(F)(F)F)cn34)n2)C1)c1ccc(F)cc1F` [IV-744] came in with a Ki of over 1000 nM.

`CC(=O)N1CCN(c2ccnc(-c3cnc4cnc(C(N)=O)cn34)n2)CC1(C)C` [IV-699, 3-(4-(4-Acetyl-3,3-dimethylpiperazin-1-yl)pyrimidin-2-yl)imidazo[1,2-a]pyrazine-6-carboxamide]: the Ki is 100 to 1000 nM.

For the compound `CC(=O)NCC1CCN(c2ccnc(-c3cnc4cnc(C(F)(F)F)cn34)n2)C1` (stereo not drawn) [IV-537, N-((1-(2-(6-(Trifluoromethyl)imidazo[1,2-a]pyrazin-3-yl)pyrimidin-4-yl)pyrrolidin-3-yl)methyl)acetamide], the Ki lay in the range of 100 to 1000 nM.

Compound `CC1CCN(c2ccnc(-c3cnc4cnc(C(F)(F)F)cn34)n2)CC1n1ccnc1` (stereo not drawn) [IV-319, 3-(4-(3-(1H-Imidazol-1-yl)-4-methylpiperidin-1-yl)pyrimidin-2-yl)-6-(trifluoromethyl)imidazo[1,2-a]pyrazine] displayed a Ki of 100 to 1000 nM.

For `Cc1[nH]ncc1C1NC(C)CN(c2ccnc(-c3cnc4cnc(Cl)cn34)n2)C1C` (stereo not drawn) [IV-278, 6-Chloro-3-(4-(2,5-dimethyl-3-(5-methyl-1H-pyrazol-4-yl)piperazin-1-yl)pyrimidin-2-yl)imidazo[1,2-a]pyrazine], the Ki is under 10 nM.

In the case of `CC1C(c2cn[nH]c2)OCCN1c1ccnc(-c2cnc3cnc(Br)cn23)n1` (single isomer, unassigned) [IV-329, 4-(2-(6-Bromoimidazo[1,2-a]pyrazin-3-yl)pyrimidin-4-yl)-3-methyl-2-(1H-pyrazol-4-yl)morpholine], the Ki fell in the range of 10 to 100 nM.

`Cn1cc(C(F)(F)F)nc1C1CCCN(c2ccnc(-c3cnc4cnc(C(F)(F)F)cn34)n2)C1` (stereo not drawn) [IV-654, 3-(4-(3-(1-Methyl-4-(trifluoromethyl)-1H-imidazol-2-yl)piperidin-1-yl)pyrimidin-2-yl)-6-(trifluoromethyl)imidazo[1,2-a]pyrazine] displayed a Ki of 100 to 1000 nM.

On to `CS(=N)(=O)CC1CCN(c2ccnc(-c3cnc4cnc(C(F)(F)F)cn34)n2)C1` (stereo not drawn) [IV-607, Imino(methyl)((1-(2-(6-(trifluoromethyl)imidazo[1,2-a]pyrazin-3-yl)pyrimidin-4-yl)pyrrolidin-3-yl)methyl)-λ^6-sulfanone], for which the Ki was 100 to 1000 nM.

`CC1C(c2cn[nH]c2)CC(P(C)(C)=O)CN1c1ccnc(-c2cnc3cnc(C(F)(F)F)cn23)n1` (stereo not drawn) [IV-697, Dimethyl(6-methyl-5-(1H-pyrazol-4-yl)-1-(2-(6-(trifluoromethyl)imidazo[1,2-a]pyrazin-3-yl)pyrimidin-4-yl)piperidin-3-yl)phosphine oxide] yielded a Ki of 100 to 1000 nM.

Take `CC(=O)N1CCN(c2ccnc(-c3cnc4cnc(-c5ccccc5)cn34)n2)CC1` [IV-297, 1-(4-(2-(6-Phenylimidazo[1,2-a]pyrazin-3-yl)pyrimidin-4-yl)piperazin-1-yl)ethan-1-one]: the Ki fell in the range of 100 to 1000 nM.

For the compound `FC(F)(F)c1cn2c(-c3nccc(N4CCC(c5cc[nH]n5)C4)n3)cnc2cn1` (stereo not drawn) [IV-457, 3-(4-(3-(1H-Pyrazol-3-yl)pyrrolidin-1-yl)pyrimidin-2-yl)-6-(trifluoromethyl)imidazo[1,2-a]pyrazine], the Ki lay within 100 to 1000 nM.

In turn, `O=C(N[C@H]1CCCN(c2ccnc(-c3cnc4cnc(C(F)(F)F)cn34)n2)C1)C1CC1` [IV-732] yielded a Ki of over 1000 nM.

Take `NC(=O)c1cn2c(-c3nccc(N4CCC(=O)N5CCCC5C4)n3)cnc2cn1` (stereo not drawn) [IV-262, 3-(4-(5-Oxohexahydro-1H-pyrrolo[1,2-a][1,4]diazepin-2(3H)-yl)pyrimidin-2-yl)imidazo[1,2-a]pyrazine-6-carboxamide]: the Ki is 100 to 1000 nM.

Regarding `CC(=O)N1CCN(c2cccc(-c3cnc4cnc(C(F)(F)F)cn34)n2)CC1` [IV-259, 1-(4-(6-(6-(Trifluoromethyl)imidazo[1,2-a]pyrazin-3-yl)pyridin-2-yl)piperazin-1-yl)ethan-1-one], the Ki lay in the range of 100 to 1000 nM.

`NC(=O)c1cn2c(-c3cccc(N4CCC(O)CC4)n3)cnc2cn1` [IV-219, 3-(6-(4-Hydroxypiperidin-1-yl)pyridin-2-yl)imidazo[1,2-a]pyrazine-6-carboxamide]: the Ki was in the range of 10 to 100 nM.

For the compound `CC1COC(CO)CN1c1ccnc(-c2cnc3cnc(C(F)(F)F)cn23)n1` (stereo not drawn) [IV-613, (5-Methyl-4-(2-(6-(trifluoromethyl)imidazo[1,2-a]pyrazin-3-yl)pyrimidin-4-yl)morpholin-2-yl)methanol], the Ki lay in the range of 100 to 1000 nM.

As to `CC1CNC(c2cn[nH]c2)CN1c1ccnc(-c2cnc3cnc(C(F)(F)F)cn23)n1` (single isomer, unassigned) [IV-333, 3-(4-(2-Methyl-5-(1H-pyrazol-4-yl)piperazin-1-yl)pyrimidin-2-yl)-6-(trifluoromethyl)imidazo[1,2-a]pyrazine], the Ki was in the range of 10 to 100 nM.

Staying with this assay, now noted: compounds of Formula II; 280 μM ATP, 4 nM GCN2 kinase.
The compound `[2H]C([2H])(NS(C)(=O)=O)C1CCCN(c2cc(-c3cnc4ccc(C(F)F)nn34)ncn2)C1` (stereo not drawn) [II-524, N-((1-(6-(6-(Difluoromethyl)imidazo[1,2-b]pyridazin-3-yl)pyrimidin-4-yl)piperidin-3-yl)methyl-d2)methanesulfonamide] returned a Ki of under 10 nM.

`CC(=O)N1CCN(c2cc(-c3cnc4ccc(C(F)F)nn34)ncn2)C(C)C1CNS(C)(=O)=O` (stereo not drawn) [II-515, N-((1-Acetyl-4-(6-(6-(difluoromethyl)imidazo[1,2-b]pyridazin-3-yl)pyrimidin-4-yl)-3-methylpiperazin-2-yl)methyl)methanesulfonamide]: the Ki was under 10 nM.

Turning to `CS(=N)(=O)CC1CCCN(c2cc(-c3cnc4ccc(C(F)F)nn34)ncn2)C1` (single isomer, unassigned) [II-637, ((1-(6-(6-(Difluoromethyl)imidazo[1,2-b]pyridazin-3-yl)pyrimidin-4-yl)piperidin-3-yl)methyl)(imino)(methyl)-λ^6-sulfanone], the Ki lay in the range of 10 to 1000 nM.

With `Clc1ccc2ncc(-c3ccnc(N4CCNCC4)c3)n2n1` [II-220, 6-Chloro-3-(2-(piperazin-1-yl)pyridin-4-yl)imidazo[1,2-b]pyridazine], the Ki was over 1000 nM.

In the case of `Cc1nn(C)cc1C1CN(c2cc(-c3cnc4ccc(C(F)(F)F)nn34)ncn2)C[C@@H](C)O1` (stereo in doubt) [II-760, (2R,6R)-2-(1,3-dimethyl-1H-pyrazol-4-yl)-6-methyl-4-(6-(6-(trifluoromethyl)imidazo[1,2-b]pyridazin-3-yl)pyrimidin-4-yl)morpholine], the IC50 was 10 to 1000 nM.

Regarding `CC1C(CO)CCCN1c1cc(-c2cnc3ccc(C(F)F)nn23)ncn1` (stereo not drawn) [II-555, (1-(6-(6-(Difluoromethyl)imidazo[1,2-b]pyridazin-3-yl)pyrimidin-4-yl)-2-methylpiperidin-3-yl)methanol], the Ki is 10 to 1000 nM.

On to `CCC(NS(C)(=O)=O)C1CN(c2cc(-c3cnc4ccc(C(F)F)nn34)ncn2)CCO1` (stereo not drawn) [II-572, N-(1-(4-(6-(6-(Difluoromethyl)imidazo[1,2-b]pyridazin-3-yl)pyrimidin-4-yl)morpholin-2-yl)propyl)methanesulfonamide], for which the Ki fell in the range of 10 to 1000 nM.

Take `N#CCC1CCCN(c2cc(-c3cnc4ccc(C(F)(F)F)nn34)ncn2)C1` (stereo not drawn) [II-501, 2-(1-(6-(6-(Trifluoromethyl)imidazo[1,2-b]pyridazin-3-yl)pyrimidin-4-yl)piperidin-3-yl)acetonitrile]: the Ki lay in the range of 10 to 1000 nM.

Regarding `CC1(C)CN(c2cc(-c3cnc4ccc(C(F)F)nn34)ncn2)CC(CNS(C)(=O)=O)N1` (stereo not drawn) [II-567, N-((4-(6-(6-(Difluoromethyl)imidazo[1,2-b]pyridazin-3-yl)pyrimidin-4-yl)-6,6-dimethylpiperazin-2-yl)methyl)methanesulfonamide], the Ki fell in the range of 10 to 1000 nM.

In the case of `N#CCC1CN(c2cc(-c3cnc4ccc(C(F)(F)F)nn34)ncn2)CCO1` (stereo not drawn) [II-513, 2-(4-(6-(6-(Trifluoromethyl)imidazo[1,2-b]pyridazin-3-yl)pyrimidin-4-yl)morpholin-2-yl)acetonitrile], the Ki fell in the range of 10 to 1000 nM.

In turn, `CC1CC(CO)C(C)N(c2cc(-c3cnc4ccc(C(F)F)nn34)ncn2)C1` (single isomer, unassigned) [II-586, (1-(6-(6-(Difluoromethyl)imidazo[1,2-b]pyridazin-3-yl)pyrimidin-4-yl)-2,5-dimethylpiperidin-3-yl)methanol] returned a Ki of 10 to 1000 nM.

`CC1C(CNS(C)(=O)=O)C(F)(F)C(C)CN1c1cc(-c2cnc3ccc(C(F)F)nn23)ncn1` (single isomer, unassigned) [II-468, N-((1-(6-(6-(Difluoromethyl)imidazo[1,2-b]pyridazin-3-yl)pyrimidin-4-yl)-4,4-difluoro-2,5-dimethylpiperidin-3-yl)methyl)methanesulfonamide] gave a Ki of 10 to 1000 nM.

`CC(C)(O)C1CCCN(c2cc(-c3cnc4ccc(C(F)F)nn34)ncn2)C1` (single isomer, unassigned) [II-613, 2-(1-(6-(6-(Difluoromethyl)imidazo[1,2-b]pyridazin-3-yl)pyrimidin-4-yl)piperidin-3-yl)propan-2-ol] came in with a Ki of 10 to 1000 nM.

As for `CCS(C)(=O)=NC1CC(C)CN(c2cc(-c3cnc4ccc(C(F)F)nn34)ncn2)C1` (single isomer, unassigned) [II-641, ((1-(6-(6-(Difluoromethyl)imidazo[1,2-b]pyridazin-3-yl)pyrimidin-4-yl)-5-methylpiperidin-3-yl)imino)(ethyl)(methyl)-λ^6-sulfanone], the Ki fell in the range of 10 to 1000 nM.

Still in this assay, the particulars now being: compounds of Formula IV; 280 μM ATP, 4 nM GCN2 kinase.
As for `Cc1n[nH]cc1[C@@H]1C[C@H](C)CN(c2nccc(-c3cnc4cnc(C(F)(F)F)cn34)n2)C1` [IV-759, 3-(2-((3S,5S)-3-methyl-5-(3-methyl-1H-pyrazol-4-yl)piperidin-1-yl)pyrimidin-4-yl)-6-(trifluoromethyl)imidazo[1,2-a]pyrazine], the IC50 was in the range of 10 to 1000 nM.

The IC50 is the concentration that gives 50% inhibition. Low readings indicate greater potency in that assay, high ones weaker potency in that assay.
